Data taken from patent US8282968B2, “Bioactive water fraction from Gomphostemma niveum” (The Director General, Defence Research and Development …, priority 2005, dated 2012).

System: P. falciparum
Experiment: In vitro evaluation of anti-malarial activity (schizont maturation inhibition)
Format: cell-based
Conditions: Plasmodium falciparum, 24 h
From the text: All the tests are run in duplicates with in 96 well flat bottomed tissue culture plate and double dilutions are made for each of the test compound with individual control wells only with the RPMI 1640 and human serum supplement.

Compound `CCN(CC)CCCC(C)Nc1ccnc2cc(Cl)ccc12` (stereo not shown) [Chloroquine] has an IC90 of 0.046 µM.
